This note sets out measurements from patent US11124788B2, “Asx-specific protein ligase” (NANYANG TECHNOLOGICAL UNIVERSITY, priority 2014, dated 2021).

Where two headings read alike, the source gives them in different places. Residues, ends and D or L forms follow the SMILES beside them. *: point of attachment. AMC = Cc1cc(=O)oc2cc(N*)ccc12; Cbz = O=C(OCc1ccccc1)* Bounds are passed on as bounds.

Series [1] relates to butelase 1. The experiment in a line: Hydrolysis of Z-AAN-AMC by butelase 1 (asparaginyl endopeptidase activity). As to conditions: 50 mM Z-AAN-AMC, 30 h. Format: biochemical, Clitoria ternatea.
In a further series the target is T1, jack bean legumain (Canavalia ensiformis, UniProt P49046).
T1 construct: purchased Takara Bio (Japan)
T1 sequence (P49046 36-475): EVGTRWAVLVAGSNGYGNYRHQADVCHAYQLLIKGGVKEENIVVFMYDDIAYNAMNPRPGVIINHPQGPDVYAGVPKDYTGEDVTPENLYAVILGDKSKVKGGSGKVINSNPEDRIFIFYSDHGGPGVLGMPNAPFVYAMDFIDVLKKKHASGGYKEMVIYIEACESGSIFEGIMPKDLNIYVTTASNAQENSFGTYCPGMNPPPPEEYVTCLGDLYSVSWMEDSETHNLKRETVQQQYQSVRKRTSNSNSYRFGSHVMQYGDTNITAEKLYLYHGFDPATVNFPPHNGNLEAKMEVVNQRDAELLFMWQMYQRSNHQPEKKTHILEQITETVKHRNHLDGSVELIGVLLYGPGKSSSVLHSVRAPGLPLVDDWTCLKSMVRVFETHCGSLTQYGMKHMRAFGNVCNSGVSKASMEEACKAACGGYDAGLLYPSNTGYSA
The experiment in a line: Hydrolysis of Z-AAN-AMC by jack bean legumain (positive control). The series is classed as biochemical. As to conditions: same experimental conditions, 30 h.

Series [2] deals with butelase 1. The experiment in a line: Michaelis-Menten kinetics of butelase 1 as a peptide cyclase. Format: biochemical, Clitoria ternatea.
In series [3] the test system is butelase 1. The experiment in a line: In vitro cyclization of peptide/protein substrates by butelase 1 (HPLC/MS yield). Format: biochemical, Clitoria ternatea.
Series [4] can be described thus: Solubility of butelase 1 in water.
The nature of series [5]: Storage stability of purified butelase 1. As to conditions: 30 days at 4° C.
[6] abbreviates: butelase 1 cyclization, 37° C., 0.125 μM enzyme, 12 min (SA-kB1-NHV: 5 nM, 6 min).

As for `Cc1cc(=O)oc2cc(NC(=O)[C@H](CC(N)=O)NC(=O)[C@H](C)NC(=O)[C@H](C)NC(=O)OCc3ccccc3)ccc12` [Z-AAN-AMC, N-carbobenzyloxy-Ala-Ala-Asn-7-amido-4-methylcoumarin] (Cbz-Ala-Ala-Asn-{AMC}), the “Hydrolyzed product formed (RP-HPLC)” value with butelase 1 [1] was < 3%. The “Hydrolysis of Z-AAN-AMC” value at jack bean legumain is “completely hydrolyzed”.
The term Km denotes the concentration of substrate that gives half-maximal velocity. The kcat is the number of substrate molecules converted per active site and unit of time at saturation. As for Apelin, in the series with butelase 1 [2], the Km is 6.7 ± 1.4 µM and the kcat came out at 5.78 ± 0.25 s⁻¹.
Take Neuromedin ∪: in the series on butelase 1 [2], the Km worked out at 8.7 ± 2.1 µM and the kcat turned out to be 5.78 ± 0.36 s⁻¹.
In the case of “SFTI-NHV: SEQ ID NO:135, GRCTKSIPPICFPNHV; 16-residue linear substrate”, the “Cyclization efficiency, SFTI-NHV compared with SFTI-DHV” value in the series with butelase 1 [3] is reported as “significantly more efficient”. Besides, the Km with butelase 1 [2] (setting [6]) was 51 ± 4 µM. The kcat in the series on butelase 1 [2] (setting [6]) came to 0.6 ± 0.02 s⁻¹; with butelase 1 [2] (butelase 1 cyclization, 37° C., 0.125 μM enzyme, 12 min (SA-kB1-NHV: 5 nM, 6 min), listed as SFT1-NHV), 0.6 ± 0.02 s⁻¹.

B1: butelase 1: Asx-specific peptide ligase/cyclase isolated from Clitoria ternatea, amino acid sequence SEQ ID NO:1 (protein, listed as Clitoria ternatea)
chain: VEGTRWAVLVAGSKGYVNYRHQADVCHAYQILKKGGLKDENIIVFMYDDIAYNESNPHPGVIINHPYGSDVYKGVPKDYVGEDINPPNFYAVLLANKSALTGTGSGKVLDSGPNDHVFIYYTDHGGAGVLGMPSKPYIAASDLNDVLKKKHASGTYKSIVFYVESCESGSMFDGLLPEDHNIYVMGASDTGESSWVTYCPLQHPSPPPEYDVCVGDLFSVAWLEDCDVHNLQTETFQQQYEVVKNKTIVALIEDGTHVVQYGDVGLSKQTLFVYMGTDPANDNNTFTDKNSLGTPRKAVSQRDADLIHYWEKYRRAPEGSSRKAEAKKQLREVMAHRMHIDN
Take B1: the “Catalytic rate relative to sortase A” value with butelase 1 [3] (GFP as a model protein) was ~10,000. Also, the Catalytic activities with butelase 1 [2] (highest value stated in the summary) is ≤ 542,000 M^−s^−1. For the same molecule, the “Solubility in water (concentration achieved)” value in series [4] stood at 10000 µg/mL. Moreover, the “Stability of enzyme activity” value in series [5] was “minimal loss of activity”.
